Experimental data taken from ChEMBL document CHEMBL4421722, “Inhibitors of protein prenyltransferases” (2013).
Calls of active or inactive are those of the source.

What was measured:
[1] = target: T1, Geranylgeranyl transferase type-2 (Homo sapiens) (UniProt P53611+Q92696); test: Inhibition of RabGGTase in HEK293 cells assessed as reduction in geranylgeranylation of Rab5b protein at 5 to 20 uM incubated for 48 hrs by SDS-PAGE and immunoblot analysis; type: cell-based
[2] = target: T2, Geranylgeranyl transferase type-2 (Homo sapiens, UniProt P53611+Q92696); test: Competitive type inhibition of RabGGTase (unknown origin) using varying Rab7 as substrate protein and fixed [3H]geranylgeranyl pyrophosphate incubated for 20 mins by scintillation counting assay; type: protein-complex assay
T2 sequence (P53611 whole entry): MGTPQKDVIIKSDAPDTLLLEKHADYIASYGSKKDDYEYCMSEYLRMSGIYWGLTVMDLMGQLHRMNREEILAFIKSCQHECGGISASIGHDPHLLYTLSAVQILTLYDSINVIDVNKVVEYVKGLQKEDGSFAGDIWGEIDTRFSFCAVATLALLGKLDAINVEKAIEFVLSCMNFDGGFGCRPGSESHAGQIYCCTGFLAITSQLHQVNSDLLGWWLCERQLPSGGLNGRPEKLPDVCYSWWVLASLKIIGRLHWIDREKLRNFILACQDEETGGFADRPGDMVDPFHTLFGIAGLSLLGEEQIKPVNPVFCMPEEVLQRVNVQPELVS
T2 sequence (Q92696 whole entry): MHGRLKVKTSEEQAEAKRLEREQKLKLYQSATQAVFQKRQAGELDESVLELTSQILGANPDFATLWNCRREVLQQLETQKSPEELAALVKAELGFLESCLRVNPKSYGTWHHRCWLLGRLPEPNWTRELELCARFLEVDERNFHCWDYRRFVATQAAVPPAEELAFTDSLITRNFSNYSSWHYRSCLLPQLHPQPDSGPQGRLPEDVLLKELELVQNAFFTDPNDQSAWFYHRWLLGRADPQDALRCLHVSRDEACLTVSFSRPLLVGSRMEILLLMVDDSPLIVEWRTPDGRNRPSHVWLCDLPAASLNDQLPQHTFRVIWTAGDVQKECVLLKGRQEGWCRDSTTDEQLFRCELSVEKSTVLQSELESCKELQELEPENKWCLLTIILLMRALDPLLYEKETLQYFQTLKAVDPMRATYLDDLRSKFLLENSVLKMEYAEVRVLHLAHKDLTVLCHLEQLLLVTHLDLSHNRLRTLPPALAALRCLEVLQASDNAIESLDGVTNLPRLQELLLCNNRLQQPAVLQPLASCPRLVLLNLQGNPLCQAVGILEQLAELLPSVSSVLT

[3] = Inhibition of rat recombinant geranylgeranyltransferase type I expressed in Escherichia coli assessed as reduction in geranylgeranylation of RhoA incubated for 30 mins in presence of [3H]GGPP by scintillation counting assay relative to control
[4] = target: T1, Geranylgeranyl transferase type-2 (Homo sapiens); test: Uncompetitive type inhibition of RabGGTase (unknown origin) using fixed Rab7 as substrate protein and varying [3H]geranylgeranyl pyrophosphate incubated for 20 mins by scintillation counting assay; type: protein-complex assay
[5] = target: T3, Protein farnesyltransferase (Homo sapiens) (UniProt P49354+P49356); test: Inhibition of FTase in HEK293 cells assessed as reduction in H-ras farnesylation at […] 10 uM incubated for 48 hrs by SDS-PAGE and immunoblot analysis; type: cell-based
[6] = target: T1, Geranylgeranyl transferase type-2 (Homo sapiens); test: Inhibition of RabGGTase in HEK293 cells assessed as reduction in geranylgeranylation of Rab5b protein at 20 uM incubated for 48 hrs by SDS-PAGE and immunoblot analysis; type: cell-based
HEK293 [7] = test: Inhibition of geranylgeranyltransferase type I in HEK293 cells expressing Myc-HA-tagged Rheb-WT assessed as effect on unprenylated Rap1 accumulation at 5 to 20 uM incubated for 48 hrs by SDS-PAGE and immunoblot analysis; type: cell-based; conditions: Homo sapiens
[8] = target: T1, Geranylgeranyl transferase type-2 (Homo sapiens); test: Inhibition of RabGGTase in HEK293 cells assessed as increase in Rab5b protein in soluble fraction at 5 to 20 uM incubated for 48 hrs by SDS-PAGE and immunoblot analysis; type: cell-based
[9] = target: Protein farnesyltransferase (Rattus norvegicus, UniProt Q02293+Q04631); test: Inhibition of rat recombinant FTase alpha/beta expressed in Escherichia coli using K-Ras4B as a substrate as and [3H]farnesyl pyrophosphate incubated for 30 mins by scintillation counting assay
[10] = target: T2, Geranylgeranyl transferase type-2; test: Inhibition of RabGGTase (unknown origin) using YPTI as substrate protein and [3H]geranylgeranyl pyrophosphate incubated for 20 mins by scintillation counting assay; type: protein-complex assay
[11] = Toxicity in SCID mouse xenografted with human PANC1 cells assessed as effect on ALP level at 1.16 mg/kg, ip dosed 3 times per week and measured every 2 weeks up to day 14 to day 47; type: organism-based; conditions: in vivo, 336 h
Mus musculus = species: Mus musculus; test: Inhibition of geranylgeranyltransferase type I in mouse NIH/3T3 cells transfected with p21WAF1/CIP1 promoter-Luc assessed as induction of p21 CIP1/WAF1 expression by luciferase reporter gene assay; type: cell-based
[12] = target: Protein farnesyltransferase (Rattus norvegicus) (UniProt Q04631+Q02293); test: Inhibition of rat recombinant FTase alpha/beta expressed in Escherichia coli at 100000 nM using K-Ras4B as a substrate as and [3H]farnesyl pyrophosphate incubated for 30 mins by scintillation counting assay
[13] = Toxicity in SCID mouse xenografted with human PANC1 cells assessed as effect on NE level at 1.16 mg/kg, ip dosed 3 times per week and measured every 2 weeks up to day 14 to day 47; type: organism-based; conditions: in vivo, 336 h
K562 [14] = test: Induction of cell cycle arrest in human K562 cells assessed as reduction in accumulation at S phase incubated for 48 hrs by flow cytometry; type: functional, cell-based
[15] = Toxicity in SCID mouse xenografted with human PANC1 cells assessed as effect on CK level at 1.16 mg/kg, ip dosed 3 times per week and measured every 2 weeks up to day 14 to day 47; type: organism-based; conditions: in vivo, 336 h
K562 [16] = test: Induction of cell cycle arrest in human K562 cells assessed as accumulation at G1 phase incubated for 48 hrs by flow cytometry; type: functional, cell-based
[17] = Clearance in SCID mouse xenografted with human PANC1 cells at 1.16 mg/kg, ip dosed once or 6 times per week; type: ADME, organism-based; conditions: in vivo
[18] = Toxicity in SCID mouse xenografted with human PANC1 cells assessed as effect on CA level at 1.16 mg/kg, ip dosed 3 times per week and measured every 2 weeks up to day 14 to day 47; type: organism-based; conditions: in vivo, 336 h
[19] = Toxicity in SCID mouse xenografted with human PANC1 cells assessed as effect on creatinine level at 1.16 mg/kg, ip dosed 3 times per week and measured every 2 weeks up to day 14 to day 47; type: organism-based; conditions: in vivo, 336 h
HEK293 [20] = test: Inhibition of geranylgeranyltransferase type I in HEK293 cells expressing Myc-HA-tagged Rheb-WT assessed as effect on unprenylated Rap1 accumulation at 2.5 uM incubated for 48 hrs by SDS-PAGE and immunoblot analysis; type: cell-based; conditions: Homo sapiens
[21] = Toxicity in SCID mouse xenografted with human PANC1 cells assessed as effect on BUN level at 1.16 mg/kg, ip dosed 3 times per week and measured every 2 weeks up to day 14 to day 47; type: organism-based; conditions: in vivo, 336 h
MCF7 = test: Antiproliferative activity against human MCF7 cells assessed as inhibition of cell proliferation incubated for 6 days by CCK8 assay; type: functional, cell-based
Jurkat = test: Antiproliferative activity against human Jurkat cells assessed as inhibition of cell proliferation incubated for 72 hrs by CCK8 assay; type: functional, cell-based
[22] = Toxicity in SCID mouse xenografted with human PANC1 cells assessed as effect on WBC level at 1.16 mg/kg, ip dosed 3 times per week and measured every 2 weeks up to day 14 to day 47; type: organism-based; conditions: in vivo, 336 h
[23] = Toxicity in SCID mouse xenografted with human PANC1 cells assessed as effect on ALT […] level at 1.16 mg/kg, ip dosed 3 times per week and measured every 2 weeks up to day 14 to day 47; type: organism-based; conditions: in vivo, 336 h
[24] = target: T1, Geranylgeranyl transferase type-2 (Homo sapiens); test: Inhibition of RabGGTase (unknown origin) at 100000 nM using YPTI as substrate protein and [3H]geranylgeranyl pyrophosphate incubated for 20 mins by scintillation counting assay; type: protein-complex assay
[25] = Toxicity in SCID mouse xenografted with human PANC1 cells assessed as effect on RBC level at 1.16 mg/kg, ip dosed 3 times per week and measured every 2 weeks up to day 14 to day 47; type: organism-based; conditions: in vivo, 336 h
[26] = Toxicity in SCID mouse xenografted with human PANC1 cells assessed as effect on GLU level at 1.16 mg/kg, ip dosed 3 times per week and measured every 2 weeks up to day 14 to day 47; type: organism-based; conditions: in vivo, 336 h
[27] = Toxicity in SCID mouse xenografted with human PANC1 cells assessed as effect on LY level at 1.16 mg/kg, ip dosed 3 times per week and measured every 2 weeks up to day 14 to day 47; type: organism-based; conditions: in vivo, 336 h
[28] = Toxicity in SCID mouse xenografted with human PANC1 cells assessed as effect on cholesterol level at 1.16 mg/kg, ip dosed 3 times per week and measured every 2 weeks up to day 14 to day 47; type: organism-based; conditions: in vivo, 336 h
PANC-1 [29] = test: Antitumor activity against human PANC1 cells xenografted in SCID mouse assessed as inhibition of tumor growth at 1.16 mg/kg, ip dosed once time per week and measured every 2 weeks; type: functional, organism-based
PANC-1 [30] = test: Antitumor activity against human PANC1 cells xenografted in SCID mouse assessed as inhibition of tumor growth at 1.16 mg/kg, ip dosed six times per week and measured every 2 weeks; type: functional, organism-based
[31] = Toxicity in SCID mouse xenografted with human PANC1 cells assessed as effect on ALB level at 1.16 mg/kg, ip dosed 3 times per week and measured every 2 weeks up to day 14 to day 47; type: organism-based; conditions: in vivo, 336 h
[32] = Toxicity in SCID mouse xenografted with human PANC1 cells assessed as effect on AST […] level at 1.16 mg/kg, ip dosed 3 times per week and measured every 2 weeks up to day 14 to day 47; type: organism-based; conditions: in vivo, 336 h
[33] = target: T3, Protein farnesyltransferase (Homo sapiens); test: Inhibition of FTase in HEK293 cells assessed as reduction in H-ras farnesylation at 2.5 to 10 uM incubated for 48 hrs by SDS-PAGE and immunoblot analysis; type: cell-based
PANC-1 [34] = test: Antitumor activity against human PANC1 cells xenografted in SCID mouse assessed as inhibition of tumor growth at 1.16 mg/kg, ip dosed 3 times per week and measured every 2 weeks up to day 14 to day 47; type: functional, organism-based
[35] = target: T1, Geranylgeranyl transferase type-2 (Homo sapiens); test: Inhibition of RabGGTase in HEK293 cells assessed as reduction in geranylgeranylation of Rab5b protein at 5 to 10 uM incubated for 48 hrs by SDS-PAGE and immunoblot analysis; type: cell-based
[36] = Toxicity in SCID mouse xenografted with human PANC1 cells assessed as effect on PLT level at 1.16 mg/kg, ip dosed 3 times per week and measured every 2 weeks up to day 14 to day 47; type: organism-based; conditions: in vivo, 336 h

CCCCCCS[C@H]1[C@@H](C(=O)O)[C@H](c2ccc(Br)cc2)N(S(=O)(=O)c2ccc(C)cc2)[C@@H]1CCC
active: inhibition [1] | inhibition [4] | inhibition [6] | inhibition [8]
> 100 µM: IC50 [9]
1.36 µM: Ki [2]
2.1 µM: IC50 [10]
inactive: inhibition [5] | inhibition (HEK293 [7])
> 50 µM: IC50 [3]

Cc1ccccc1S(=O)(=O)N1[C@@H](c2ccc(Cl)cc2)C(C(=O)N[C@@H](Cc2ccccc2)C(N)=O)=C[C@H]1C(C)(C)C
active: Activity (Mus musculus) Dose-dependent effect | Activity (K562 [14]) Dose-dependent effect | Activity (K562 [16]) Dose-dependent effect | inhibition (HEK293 [20]) | inhibition (MCF7) Dose-dependent effect | TGI (PANC-1 [29]) | TGI (PANC-1 [30]) | TGI (PANC-1 [34])
1 to 7.7 µM: IC50 [3]
Non-Toxic: Activity [11] | Activity [13] | Activity [15] | Activity [18] | Activity [19] | Activity [21] | Activity [22] | Activity [23] | Activity [25] | Activity [26] | Activity [27] | Activity [28] | Activity [31] | Activity [32] | Activity [36]
inactive: inhibition [12] | inhibition [24] | inhibition [33] | inhibition [35]
4.89 to 6.1 µM: GI50 (Jurkat)
0.0173 mL/min: CL/F [17]
